The results in this text go back to patent US8716292B2, “Riminophenazines with 2-(heteroaryl)amino substituents and their anti-microbial activity” (priority 2010, dated 2014).

Values after ≈ are worked out from the molar mass of the structure shown. Bounds are passed on as bounds.

The first test concerns Mycobacterium tuberculosis H37Rv strains. Briefly: In vitro assay for antimicrobial susceptibility (microplate Alamar blue MIC). In kind it is cell-based. The conditions noted are these: Mycobacterium tuberculosis, H37RV, 7H9, Alamar blue, inhibition ≧90%; read-out: MIC (μg/mL) against H37Rv. For orientation: The colour change of resazurin is a common sign of viable cells or microbes.
For the compound `COC1CCC(/N=c2\cc3n(-c4ccc(F)cc4)c4ccccc4nc-3cc2Nc2ccccn2)CC1` (centres unmarked) [TBI-1078, 5-(4-Fluorophenyl)-3-(4-methoxycyclohexyl)imino-2-(2-pyridyl)amino-3,5-dihydrophenazine], the MIC is 0.028 µg/mL (≈ 0.0567 µM).
The same measure, in the same setting: next, `COC1CCC(/N=c2\cc3n(-c4ccc(F)cc4)c4ccccc4nc-3cc2Nc2cnccn2)CC1` (centres unmarked) [TBI-1079, 5-(4-Fluorophenyl)-3-(4-methoxycyclohexyl)imino-2-(pyrazin-2-yl)amino-3,5-dihydrophenazine]: 0.037 µg/mL (≈ 0.0748 µM).
On the same count and under the same terms, next, `COC1CCC(/N=c2\cc3n(-c4ccc(F)cc4)c4ccccc4nc-3cc2Nc2ncccn2)CC1` (centres unmarked) [TBI-1080, 5-(4-Fluorophenyl)-3-(4-methoxycyclohexyl)imino-2-(pyrimidin-2-yl)amino-3,5-dihydrophenazine]: 0.029 µg/mL (≈ 0.0586 µM).
The same measure, in the same setting: next, `COC1CCC(/N=c2\cc3n(-c4ccc(F)cc4)c4ccccc4nc-3cc2Nc2ncccc2C#N)CC1` (centres unmarked) [TBI-1082, 5-(4-Fluorophenyl)-3-(4-methoxycyclohexyl)imino-2-(3-cyano-2-pyridyl)amino-3,5-dihydrophenazine]: 0.029 µg/mL (≈ 0.0559 µM).
As to `COC1CCC(/N=c2\cc3n(-c4ccc(F)cc4)c4ccccc4nc-3cc2Nc2ncccc2[N+](=O)[O-])CC1` (centres unmarked) [TBI-1083, 5-(4-Fluorophenyl)-3-(4-methoxycyclohexyl)imino-2-(3-nitro-2-pyridyl)amino-3,5-dihydrophenazine], the MIC was 5.81 µg/mL (≈ 10.8 µM).
The same measure, in the same setting: the same measure for `Fc1ccc(-n2c3c/c(=N\C4CCOCC4)c(Nc4ncccn4)cc-3nc3ccccc32)cc1` [TBI-1084, 5-(4-Fluorophenyl)-3-(4-tetrahydropyranyl)imino-2-(pyrimidin-2-yl)amino-3,5-dihydrophenazine]: 0.043 µg/mL (≈ 0.0922 µM); for `Fc1ccc(-n2c3c/c(=N\C4CCOCC4)c(Nc4cnccn4)cc-3nc3ccccc32)cc1` [TBI-1085, 5-(4-Fluorophenyl)-3-(4-tetrahydropyranyl)imino-2-(pyrazin-2-yl)amino-3,5-dihydrophenazine]: 0.038 µg/mL (≈ 0.0815 µM); for `N#Cc1cccnc1Nc1cc2nc3ccccc3n(-c3ccc(F)cc3)c-2c/c1=N\C1CCOCC1` [TBI-1086, 5-(4-Fluorophenyl)-3-(4-tetrahydropyranyl)imino-2-(3-cyano-2-pyridyl)amino-3,5-dihydrophenazine]: 0.04 µg/mL (≈ 0.0815 µM).
The same measure, in the same setting: next, `Fc1ccc(-n2c3c/c(=N\C4CCOCC4)c(Nc4ccccn4)cc-3nc3ccccc32)cc1` [TBI-1087, 5-(4-Fluorophenyl)-3-(4-tetrahydropyranyl)imino-2-(2-pyridyl)amino-3,5-dihydrophenazine]: 0.028 µg/mL (≈ 0.0601 µM); `O=[N+]([O-])c1cccnc1Nc1cc2nc3ccccc3n(-c3ccc(F)cc3)c-2c/c1=N\C1CCOCC1` [TBI-1088, 5-(4-Fluorophenyl)-3-(4-tetrahydropyranyl)imino-2-(3-nitro-2-pyridyl)amino-3,5-dihydrophenazine]: 0.028 µg/mL (≈ 0.0548 µM).
Same read-out and setting: the same measure for `COC1CCC(/N=c2\cc3n(-c4ccc(Cl)cc4)c4ccccc4nc-3cc2Nc2ncccn2)CC1` (centres unmarked) [TBI-1090, 5-(4-Chlorophenyl)-3-(4-methoxycyclohexyl)imino-2-(pyrimidin-2-yl)amino-3,5-dihydrophenazine]: < 0.0075 µg/mL; for `COC1CCC(/N=c2\cc3n(-c4ccc(Cl)cc4)c4ccccc4nc-3cc2Nc2cnccn2)CC1` (centres unmarked) [TBI-1091, 5-(4-Chlorophenyl)-3-(4-methoxycyclohexyl)imino-2-(pyrazin-2-yl)amino-3,5-dihydrophenazine]: 0.018 µg/mL (≈ 0.0352 µM); for `COC1CCC(/N=c2\cc3n(-c4ccc(F)c(F)c4)c4ccccc4nc-3cc2Nc2ncccn2)CC1` (centres unmarked) [TBI-1433, 5-(3,4-Difluorophenyl)-3-(4-methoxycyclohexyl)imino-2-(pyrimidin-2-yl)amino-3,5-dihydrophenazine]: 0.086 µg/mL (≈ 0.168 µM).
With `CC(C)/N=c1\cc2n(-c3ccc(F)c(F)c3)c3ccccc3nc-2cc1Nc1ccccn1` [TBI-1436, 5-(3,4-Difluorophenyl)-3-(1-methylethyl)imino-2-(2-pyridyl)amino-3,5-dihydrophenazine], the MIC was determined as 0.028 µg/mL (≈ 0.0634 µM).
The same measure, in the same setting: the same measure for `CC(C)/N=c1\cc2n(-c3ccc(F)c(F)c3)c3ccccc3nc-2cc1Nc1ncccn1` [TBI-1437, 5-(3,4-Difluorophenyl)-3-(1-methylethyl)imino-2-(pyrimidin-2-yl)amino-3,5-dihydrophenazine]: 0.02 µg/mL (≈ 0.0452 µM); for `CC(C)/N=c1\cc2n(-c3ccc(F)c(F)c3)c3ccccc3nc-2cc1Nc1ncccc1C#N` [TBI-1438, 5-(3,4-Difluorophenyl)-3-(1-methylethyl)imino-2-(3-cyano-2-pyridyl)amino-3,5-dihydrophenazine]: 0.053 µg/mL (≈ 0.114 µM); for `COC1CCC(/N=c2\cc3n(-c4ccc(F)c(F)c4)c4ccccc4nc-3cc2Nc2ccc([N+](=O)[O-])cn2)CC1` (centres unmarked) [TBI-1444, 5-(3,4-Difluorophenyl)-3-(4-methoxycyclohexyl)imino-2-(5-nitro-2-pyridyl)amino-3,5-dihydrophenazine]: 0.114 µg/mL (≈ 0.205 µM).
In the case of `COC1CCC(/N=c2\cc3n(-c4ccc(F)c(F)c4)c4ccccc4nc-3cc2Nc2cnccn2)CC1` (centres unmarked) [TBI-1445, 5-(3,4-Difluorophenyl)-3-(4-methoxycyclohexyl)imino-2-(pyrazin-2-yl)amino-3,5-dihydrophenazine], the MIC is 0.056 µg/mL (≈ 0.109 µM).
On the same count and under the same terms, next, `CC(C)/N=c1\cc2n(-c3ccc(F)c(F)c3)c3ccccc3nc-2cc1Nc1cnccn1` [TBI-1446, 5-(3,4-Difluorophenyl)-3-(1-methylethyl)imino-2-(pyrazin-2-yl)amino-3,5-dihydrophenazine]: 0.03 µg/mL (≈ 0.0678 µM).

Still in this test, the particulars now being: Mycobacterium tuberculosis, H37RV, in vitro, Mycobacterium tuberculosis H37Rv strains; read-out: MIC (μg/mL) against H37Rv.
On to `COc1nc(C)ccc1Nc1cc2nc3ccccc3n(-c3ccc(F)cc3)c-2c/c1=N\C(C)C` [TBI-1092, 5-(4-Fluorophenyl)-3-(1-methylethyl)imino-2-(2-methoxy-6-methyl-3-pyridyl)amino-3,5-dihydrophenazine], for which the MIC came out at 0.424 µg/mL (≈ 0.907 µM).
In the case of `COc1ncccc1Nc1cc2nc3ccccc3n(-c3ccc(NC(C)=O)cc3)c-2c/c1=N\C(C)C` [TBI-1220, 5-(4-Acetamidophenyl)-3-(1-methylethyl)imino-2-(2-methoxy-3-pyridyl)amino-3,5-dihydrophenazine], the MIC was > 0.5 µg/mL.
Still for that read-out and setting: next, `COc1ncccc1Nc1cc2nc3ccccc3n(-c3ccc(NC(C)=O)cc3)c-2c/c1=N\C1CC1` [TBI-1221, 5-(4-Acetamidophenyl)-3-cyclopropylimino-2-(2-methoxy-3-pyridyl)amino-3,5-dihydrophenazine]: 0.9 µg/mL (≈ 1.83 µM); `COc1ncccc1Nc1cc2nc3ccccc3n(-c3ccc(NC(C)=O)cc3)c-2c/c1=N\C1CCC(OC)CC1` (centres unmarked) [TBI-1222, 5-(4-Acetamidophenyl)-3-(4-methoxycyclohexyl)imino-2-(2-methoxy-3-pyridyl)amino-3,5-dihydrophenazine]: 0.925 µg/mL (≈ 1.64 µM).
The same measure, in the same setting: the same measure for `COc1ncccc1Nc1cc2nc3ccccc3n(-c3ccc(NC(C)=O)cc3)c-2c/c1=N\C1CCCCC1` [TBI-1223, 5-(4-Acetamidophenyl)-3-cyclohexylimino-2-(2-methoxy-3-pyridyl)amino-3,5-dihydrophenazine]: 1.49 µg/mL (≈ 2.79 µM); for `CC(=O)Nc1ccc(-n2c3c/c(=N\C(C)C)c(Nc4ccc(C)nc4)cc-3nc3ccccc32)cc1` [TBI-1228, 5-(4-Acetamidophenyl)-3-(1-methylethyl)imino-2-(6-methyl-3-pyridyl)amino-3,5-dihydrophenazine]: 2.4 µg/mL (≈ 5.03 µM); for `COC1CCC(/N=c2\cc3n(-c4ccc(NC(C)=O)cc4)c4ccccc4nc-3cc2Nc2ccc(C)nc2)CC1` (centres unmarked) [TBI-1229]: 0.482 µg/mL (≈ 0.882 µM).
Same read-out and setting: next, `Fc1ccc(-n2c3c/c(=N\C4CC4)c(Nc4cccnc4)cc-3nc3ccccc32)cc1F` [TBI-1429, 5-(3,4-Difluorophenyl)-3-cyclopropylimino-2-(3-pyridyl)amino-3,5-dihydrophenazine]: 0.011 µg/mL (≈ 0.025 µM); `COC1CCC(/N=c2\cc3n(-c4ccc(F)c(F)c4)c4ccccc4nc-3cc2Nc2cccnc2)CC1` (centres unmarked) [TBI-1430, 5-(3,4-Difluorophenyl)-3-(4-methoxycyclohexyl)imino-2-(3-pyridyl)amino-3,5-dihydrophenazine]: 0.059 µg/mL (≈ 0.115 µM).
Regarding `Fc1ccc(-n2c3c/c(=N\C4CCOCC4)c(Nc4cccnc4)cc-3nc3ccccc32)cc1F` [TBI-1432, 5-(3,4-Difluorophenyl)-3-(4-tetrahydropyranyl)imino-2-(3-pyridyl)amino-3,5-dihydrophenazine], the MIC was determined as 0.088 µg/mL (≈ 0.182 µM).

The same test, now with this note: in vitro, Mycobacterium tuberculosis H37Rv strains.
For the compound `COc1ncccc1Nc1cc2nc3ccccc3n(-c3ccc(F)c(F)c3)c-2c/c1=N\C1CCOCC1` [TBI-1428, 5-(3,4-Difluorophenyl)-3-(4-tetrahydropyranyl)imino-2-(2-methoxy-3-pyridyl)amino-3,5-dihydrophenazine], the “MIC (μg/mL) against H37Rv” value amounted to 0.054 µg/mL (≈ 0.105 µM).

The next test deals with H37Rv. Briefly: In vivo testing: mice infected intravenously with H37Rv, lung tissue CFU counts. Also on record: species or system Male BALB/c mice. The conditions noted are these: 20 mg/kg, gavage 5 times weekly, lung tissue CFU, thirty days postinfection. On the procedure: Male BALB/c mice (18˜20 g) were infected intravenously with 0.2 ml portions containing 1×10^5 CFU of H37Rv. One day after the infection, four mice were sacrificed and the numbers of CFU in the spleens and lungs were determined. Organs were removed and homogenized in Middlebrook 7H9 broth. To enumerate CFU, appropriate dilutions of the homogenates were plated onto Middlebrook 7H10 agar and colonies were counted after 3 to 4 weeks of incubation at 37° C. The remaining mice were allocated either to untreated groups or to various drug treated groups (six mice per group). The dose of every test compound was 20 mg/kg. The positive control groups were treated by isoniazid and clofazimine. The test compounds and clofazimine were administered by gavage 5 times weekly. Untreated mice were administered by gavage with CMC. Thirty days postinfection, both untreated and treated mice were sacrificed and lung tissue CFU counts were determined. The significance of the CFU count and organ weight difference was assessed by a two-tailed Student t test. P≦0.01 was considered significant.
Turning to `COc1ncccc1Nc1cc2nc3ccccc3n(-c3ccc(F)cc3)c-2c/c1=N\C(C)C` [TBI-1004, 5-(4-Fluorophenyl)-3-(1-methylethyl)imino-2-(2-methoxy-3-pyridyl)amino-3,5-dihydrophenazine], the “Log CFU (TBI treated)” value is 4.28.

Still in this test, the particulars now being: Mycobacterium tuberculosis, H37RV, iv, 720 h, versus untreated control, lung tissue, thirty days postinfection, read-out: Log CFU Reduction (TBI treated).
Turning to `COc1ncccc1Nc1cc2nc3ccccc3n(-c3ccc(F)cc3)c-2c/c1=N\C(C)C` [TBI-1004, 5-(4-Fluorophenyl)-3-(1-methylethyl)imino-2-(2-methoxy-3-pyridyl)amino-3,5-dihydrophenazine], the log reduction at 20 mg/kg was determined as 4.25.
